Reference: PubChem BioAssay (NCI)
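Dose response: 5 concentrations. Exposure: 48 h. Format: 96-well plates. Endpoint: linear interpolation; highest concentration if not reached. GI50: concentration for 50% inhibition of growth. TGI: concentration producing complete growth inhibition.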

Tests used:
Assay in all cases: NCI-60 cell line screen, 48 h
HOP-92 NSCLC = system: HOP-92 NSCLC
RPMI-8226 leukemia = system: RPMI-8226 leukemia
TK-10 renal = system: TK-10 renal
SK-MEL-2 melanoma = system: SK-MEL-2 melanoma
SK-OV-3 ovarian = system: SK-OV-3 ovarian
LOX IMVI melanoma = system: LOX IMVI melanoma
NCI-H23 lung = system: NCI-H23 lung
K-562 leukemia = system: K-562 leukemia
HCT-15 colon = system: HCT-15 colon
SNB-75 CNS = system: SNB-75 CNS
SK-MEL-5 melanoma = system: SK-MEL-5 melanoma
CAKI-1 renal = system: CAKI-1 renal

Cc1ccc(/C=C2\NC(=S)N(CN3CCOCC3)C2=O)cc1
TGI (HOP-92 NSCLC): > 100 µM
TGI (RPMI-8226 leukemia): > 100 µM
TGI (TK-10 renal): > 100 µM
TGI (SK-MEL-2 melanoma): > 100 µM
TGI (SK-OV-3 ovarian): > 100 µM
TGI (LOX IMVI melanoma): > 100 µM
TGI (NCI-H23 lung): > 100 µM
TGI (K-562 leukemia): > 100 µM
TGI (HCT-15 colon): > 100 µM
TGI (SNB-75 CNS): > 100 µM
TGI (SK-MEL-5 melanoma): > 100 µM

COc1nn(Cc2ccccc2F)c2ccc([N+](=O)[O-])cc12
TGI (CAKI-1 renal): > 100 µM
TGI (HOP-92 NSCLC): > 100 µM
TGI (TK-10 renal): > 100 µM
TGI (SK-MEL-2 melanoma): > 100 µM
TGI (LOX IMVI melanoma): > 100 µM
TGI (NCI-H23 lung): > 100 µM
TGI (K-562 leukemia): > 100 µM
TGI (HCT-15 colon): > 100 µM
TGI (SNB-75 CNS): > 100 µM
TGI (SK-MEL-5 melanoma): > 100 µM

Cn1c(-c2csc(-c3ccc(Cl)cc3)n2)n[nH]c1=S
TGI (CAKI-1 renal): 56.4 µM
TGI (HOP-92 NSCLC): 27.1 µM
TGI (TK-10 renal): 40.2 µM
TGI (SK-OV-3 ovarian): 32 µM
TGI (LOX IMVI melanoma): 73 µM
TGI (NCI-H23 lung): 75.5 µM
TGI (K-562 leukemia): > 100 µM
TGI (HCT-15 colon): > 100 µM
TGI (SNB-75 CNS): 39.8 µM
TGI (SK-MEL-5 melanoma): > 100 µM

COC(=O)C(NC(=O)CNC(=O)CSc1nnc(COc2ccc(Cl)cc2)n1-c1ccccc1)C(C)C (stereo not drawn)
TGI (CAKI-1 renal): 28.2 µM
TGI (HOP-92 NSCLC): 51.5 µM
TGI (RPMI-8226 leukemia): 46.7 µM
TGI (TK-10 renal): 34.3 µM
TGI (SK-MEL-2 melanoma): 40.5 µM
TGI (LOX IMVI melanoma): 50 µM
TGI (NCI-H23 lung): 42.8 µM
TGI (K-562 leukemia): > 100 µM
TGI (HCT-15 colon): 48.9 µM
TGI (SNB-75 CNS): 37.5 µM
TGI (SK-MEL-5 melanoma): 30 µM

N[C@@H]1c2c(Br)sc(Br)c2[C@H](O)[C@@H]1O
TGI (CAKI-1 renal): > 100 µM
TGI (HOP-92 NSCLC): > 100 µM
TGI (TK-10 renal): > 100 µM
TGI (SK-MEL-2 melanoma): > 100 µM
TGI (SK-OV-3 ovarian): > 100 µM
TGI (LOX IMVI melanoma): > 100 µM
TGI (NCI-H23 lung): > 100 µM
TGI (K-562 leukemia): > 100 µM
TGI (HCT-15 colon): > 100 µM
TGI (SNB-75 CNS): > 100 µM
TGI (SK-MEL-5 melanoma): > 100 µM

CN(C)c1ccc(/C=C/c2sc3ccc4ccccc4c3[n+]2C)cc1
GI50 (CAKI-1 renal): 0.211 µM
TGI (CAKI-1 renal): 0.627 µM
GI50 (HOP-92 NSCLC): 0.636 µM
TGI (HOP-92 NSCLC): 2.84 µM
GI50 (TK-10 renal): 0.41 µM
TGI (TK-10 renal): 1.92 µM
GI50 (SK-OV-3 ovarian): 0.482 µM
TGI (SK-OV-3 ovarian): 2.4 µM
GI50 (K-562 leukemia): 0.199 µM
TGI (K-562 leukemia): > 100 µM
GI50 (HCT-15 colon): 0.692 µM
TGI (HCT-15 colon): > 31.5 µM

CN1CCN(CC(=O)Nc2ccc3ncnc(Nc4ccc(Oc5cccc(C(F)(F)F)c5)c(Cl)c4)c3c2)CC1
GI50 (CAKI-1 renal): 1.24 µM
TGI (CAKI-1 renal): 2.49 µM
GI50 (HOP-92 NSCLC): 1.09 µM
TGI (HOP-92 NSCLC): 2.46 µM
GI50 (TK-10 renal): 1.25 µM
TGI (TK-10 renal): 2.83 µM
GI50 (SK-MEL-2 melanoma): 2.02 µM
TGI (SK-MEL-2 melanoma): 4.04 µM
GI50 (HCT-15 colon): 1.2 µM
TGI (HCT-15 colon): 2.52 µM
GI50 (SNB-75 CNS): 1.35 µM
TGI (SNB-75 CNS): 2.67 µM

Cc1ccc(S(=O)(=O)N2CCSCCSCCN(S(=O)(=O)c3ccc(C)cc3)CCN(S(=O)(=O)c3ccc(C)cc3)CC2)cc1
TGI (CAKI-1 renal): > 100 µM
TGI (HOP-92 NSCLC): > 100 µM
TGI (RPMI-8226 leukemia): > 100 µM
TGI (TK-10 renal): > 100 µM
TGI (SK-MEL-2 melanoma): > 100 µM
TGI (SK-OV-3 ovarian): > 100 µM
TGI (LOX IMVI melanoma): > 100 µM
TGI (NCI-H23 lung): > 100 µM
TGI (K-562 leukemia): > 100 µM
TGI (HCT-15 colon): > 100 µM
TGI (SK-MEL-5 melanoma): > 100 µM

O=C1CN(c2ccc(Cl)cc2)C(=O)CN1CCN1CC(=O)N(c2ccc(Cl)cc2)CC1=O
TGI (CAKI-1 renal): > 100 µM
TGI (HOP-92 NSCLC): > 100 µM
TGI (RPMI-8226 leukemia): > 100 µM
TGI (TK-10 renal): > 100 µM
TGI (SK-OV-3 ovarian): > 100 µM
TGI (NCI-H23 lung): > 100 µM
TGI (HCT-15 colon): > 100 µM
TGI (SNB-75 CNS): > 100 µM
TGI (SK-MEL-5 melanoma): > 100 µM

O=C1Oc2ccccc2C(=O)/C1=C/N1C(=O)/C(=C/c2ccc([N+](=O)[O-])cc2)SC1=S
TGI (CAKI-1 renal): 51.3 µM
TGI (HOP-92 NSCLC): 5.71 µM
TGI (RPMI-8226 leukemia): 42.1 µM
TGI (SK-MEL-2 melanoma): 82.4 µM
TGI (SK-OV-3 ovarian): 89.5 µM
TGI (LOX IMVI melanoma): > 100 µM
TGI (NCI-H23 lung): 55 µM
TGI (K-562 leukemia): 69.8 µM
TGI (HCT-15 colon): 61.7 µM
TGI (SNB-75 CNS): 54.3 µM
TGI (SK-MEL-5 melanoma): 46.4 µM

CN1N=C2c3ccccc3CC[C@H]2C1c1ccccc1 (stereo partly drawn)
TGI (HOP-92 NSCLC): 77.9 µM
TGI (RPMI-8226 leukemia): > 100 µM
TGI (TK-10 renal): > 100 µM
TGI (SK-MEL-2 melanoma): > 100 µM
TGI (SK-OV-3 ovarian): > 100 µM
TGI (LOX IMVI melanoma): > 100 µM
TGI (NCI-H23 lung): > 100 µM
TGI (K-562 leukemia): > 100 µM
TGI (HCT-15 colon): > 100 µM

Cc1cc(C)c2c(n1)S(=O)(=O)N(CCCN1CCN(c3cccc(C(F)(F)F)c3)CC1)/C(=C(\O)c1ccccc1)C2=O
TGI (CAKI-1 renal): 11.9 µM
TGI (HOP-92 NSCLC): 36.8 µM
TGI (TK-10 renal): > 100 µM
TGI (SK-MEL-2 melanoma): > 100 µM
TGI (SK-OV-3 ovarian): 84.7 µM
TGI (LOX IMVI melanoma): 11.3 µM
TGI (NCI-H23 lung): 21.7 µM
TGI (K-562 leukemia): > 100 µM
TGI (HCT-15 colon): 67 µM
TGI (SNB-75 CNS): 19.2 µM
TGI (SK-MEL-5 melanoma): 14.1 µM

NC1CC2C3CCC2C1C3=O (stereo not drawn)
TGI (CAKI-1 renal): > 100 µM
TGI (HOP-92 NSCLC): > 100 µM
TGI (TK-10 renal): > 100 µM
TGI (SK-MEL-2 melanoma): > 100 µM
TGI (SK-OV-3 ovarian): > 100 µM
TGI (LOX IMVI melanoma): > 100 µM
TGI (NCI-H23 lung): > 100 µM
TGI (K-562 leukemia): > 100 µM
TGI (HCT-15 colon): > 100 µM
TGI (SNB-75 CNS): > 100 µM
TGI (SK-MEL-5 melanoma): > 100 µM

CC1=C(C(=O)OCCO[N+](=O)[O-])C(c2ccccc2C(F)(F)F)C(C(=O)OC(C)C)=C(C)N1 (stereo not drawn)
TGI (CAKI-1 renal): 52.3 µM
TGI (HOP-92 NSCLC): 26.8 µM
TGI (RPMI-8226 leukemia): > 100 µM
TGI (TK-10 renal): 77.4 µM
TGI (SK-MEL-2 melanoma): 29.7 µM
TGI (SK-OV-3 ovarian): > 100 µM
TGI (LOX IMVI melanoma): 27.3 µM
TGI (NCI-H23 lung): 85.4 µM
TGI (K-562 leukemia): > 100 µM
TGI (HCT-15 colon): 60.6 µM
TGI (SK-MEL-5 melanoma): 22.1 µM

CC1(C)OCC2OC3([C@H](O)CCO)OC(C)(C)OC3C2O1 (stereo partly drawn)
TGI (CAKI-1 renal): > 100 µM
TGI (HOP-92 NSCLC): > 100 µM
TGI (RPMI-8226 leukemia): > 100 µM
TGI (SK-MEL-2 melanoma): > 100 µM
TGI (LOX IMVI melanoma): > 100 µM
TGI (NCI-H23 lung): > 100 µM
TGI (K-562 leukemia): > 100 µM
TGI (HCT-15 colon): > 100 µM
TGI (SNB-75 CNS): > 100 µM
TGI (SK-MEL-5 melanoma): > 100 µM

COc1cc(/C=C2\N=C(c3ccccc3)N(C3Nc4cc5c(cc4S3)NC(N3C(=O)/C(=C/c4cc(OC)c(OC)c(OC)c4)N=C3c3ccccc3)S5)C2=O)cc(OC)c1OC (stereo not drawn)
TGI (CAKI-1 renal): > 100 µM
TGI (HOP-92 NSCLC): > 100 µM
TGI (RPMI-8226 leukemia): 95.1 µM
TGI (TK-10 renal): > 100 µM
TGI (SK-MEL-2 melanoma): > 100 µM
TGI (LOX IMVI melanoma): > 100 µM
TGI (NCI-H23 lung): > 100 µM
TGI (K-562 leukemia): > 100 µM
TGI (HCT-15 colon): > 100 µM
TGI (SNB-75 CNS): > 100 µM
TGI (SK-MEL-5 melanoma): > 100 µM

CCN1/C(=C/c2ccc3ccccc3[n+]2CC)C=Cc2ccccc21
TGI (CAKI-1 renal): 56.8 µM
TGI (HOP-92 NSCLC): 6.93 µM
TGI (RPMI-8226 leukemia): > 23.4 µM
TGI (TK-10 renal): 26.4 µM
TGI (SK-MEL-2 melanoma): 3.9 µM
TGI (LOX IMVI melanoma): 4.86 µM
TGI (NCI-H23 lung): 17.1 µM
TGI (K-562 leukemia): > 100 µM
TGI (HCT-15 colon): 34.1 µM
TGI (SNB-75 CNS): 2.27 µM
TGI (SK-MEL-5 melanoma): 3.77 µM

CO/N=C1\CCC2(O)C3Cc4ccc(O)c5c4C2(CCN3CC2CC2)[C@H]1O5 (stereo partly drawn)
TGI (CAKI-1 renal): > 100 µM
TGI (HOP-92 NSCLC): > 100 µM
TGI (RPMI-8226 leukemia): > 100 µM
TGI (TK-10 renal): > 100 µM
TGI (SK-MEL-2 melanoma): > 100 µM
TGI (SK-OV-3 ovarian): > 100 µM
TGI (LOX IMVI melanoma): > 100 µM
TGI (NCI-H23 lung): > 100 µM
TGI (K-562 leukemia): > 100 µM
TGI (HCT-15 colon): > 100 µM
TGI (SK-MEL-5 melanoma): > 100 µM

Cc1cc(Cc2cc(C)c(NC(=O)C(=O)C3C(=O)NC(=S)NC3=O)c(C(C)C)c2)cc(C(C)C)c1NC(=O)C(=O)C1C(=O)NC(=S)NC1=O
TGI (CAKI-1 renal): > 100 µM
TGI (HOP-92 NSCLC): > 100 µM
TGI (RPMI-8226 leukemia): > 100 µM
TGI (TK-10 renal): > 100 µM
TGI (SK-OV-3 ovarian): > 100 µM
TGI (LOX IMVI melanoma): > 100 µM
TGI (NCI-H23 lung): > 100 µM
TGI (K-562 leukemia): > 100 µM
TGI (HCT-15 colon): > 100 µM
TGI (SNB-75 CNS): > 100 µM
